Results reported in ChEMBL document CHEMBL2406991, “A novel series of metabotropic glutamate receptor 5 negative allosteric modulators based on a 4,5,6,7-tetrahydropyrazolo[1,5-a]pyridine core” (Bioorg Med Chem Lett, 2013).
Converted amounts (≈) assume the structure as drawn. The source made the active and inactive calls. The calls are words filed in the database; no cut-off is given here.

Assays:
[1] = Fraction unbound in rat plasma; type: ADME, cell-free
Cytochrome P450 3A4 = Cytochrome P450 3A4 (Homo sapiens, UniProt P08684); test: Inhibition of CYP3A4 (unknown origin); type: ADME
[2] = Kinetic solubility of the compound in DMSO at pH 7.4; type: physicochemical; conditions: read-out: Kinetic_solubility
[3] = target: Metabotropic glutamate receptor 5 (Rattus norvegicus) (UniProt P31424); test: Inhibition of rat mGluR5 receptor expressed in HEK293 cells at 30 uM relative to control; type: cell-based
[4] = Cmax in rat CSF at 30 mg/kg, sc; type: ADME, organism-based, Cerebrospinal fluid; set-up: dose 30 mg/kg, route subcutaneous
[5] = Cmax in rat plasma at 30 mg/kg, sc; type: ADME, organism-based; set-up: dose 30 mg/kg, route subcutaneous
[6] = Clearance in rat at 3 mg/kg, iv; type: ADME, organism-based; set-up: dose 3 mg/kg, route intravenous; conditions: in vivo
Rattus norvegicus [7] = test: Antinociceptive activity in Sprague-Dawley rat assessed as reduction in formalin-induced nocifensive behavior at 30 mg/kg, po administered 30 mins prior to formalin-challenge measured during second phase of test; type: functional, organism-based; set-up: dose 30 mg/kg
Cytochrome P450 1A2 = target: T1, Cytochrome P450 1A2 (Homo sapiens, UniProt P05177); test: Inhibition of CYP1A2 (unknown origin); type: ADME
T1 sequence (P05177 whole entry): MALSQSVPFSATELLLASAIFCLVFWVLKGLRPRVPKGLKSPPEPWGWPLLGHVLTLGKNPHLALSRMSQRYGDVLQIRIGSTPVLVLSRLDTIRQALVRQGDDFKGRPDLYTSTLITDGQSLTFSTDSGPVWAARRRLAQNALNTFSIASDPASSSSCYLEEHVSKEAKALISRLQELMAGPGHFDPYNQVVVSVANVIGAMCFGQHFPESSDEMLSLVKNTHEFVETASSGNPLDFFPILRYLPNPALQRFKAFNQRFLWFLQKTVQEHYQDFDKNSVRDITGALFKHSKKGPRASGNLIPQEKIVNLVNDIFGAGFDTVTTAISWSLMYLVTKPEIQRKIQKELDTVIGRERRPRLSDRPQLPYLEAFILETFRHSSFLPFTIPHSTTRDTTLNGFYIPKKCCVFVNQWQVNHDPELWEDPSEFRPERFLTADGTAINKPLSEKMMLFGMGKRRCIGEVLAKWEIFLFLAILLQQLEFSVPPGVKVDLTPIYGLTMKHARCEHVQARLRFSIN

[8] = Kinetic solubility of the compound in DMSO at pH 1; type: physicochemical; conditions: read-out: Kinetic_solubility
Rattus norvegicus [9] = test: Antinociceptive activity in po dosed Sprague-Dawley rat assessed as reduction in formalin-induced nocifensive behavior administered 30 mins prior to formalin-challenge measured during second phase of test; type: functional, organism-based
Plasma [10] = test: Terminal plasma concentration in Sprague-Dawley rat at 1 mg/kg, po measured during second phase of formalin test; type: ADME, organism-based; set-up: dose 1 mg/kg, route oral; conditions: in vivo
Cytochrome P450 2D6 = Cytochrome P450 2D6 (Homo sapiens, UniProt P10635); test: Inhibition of CYP2D6 (unknown origin); type: ADME
Rattus norvegicus [11] = test: Antinociceptive activity in Sprague-Dawley rat assessed as reduction in formalin-induced nocifensive behavior at 1 to 30 mg/kg, po administered 30 mins prior to formalin-challenge measured during first phase of test; type: functional, organism-based
Plasma [12] = test: Terminal plasma concentration in Sprague-Dawley rat at 10 mg/kg, po measured during second phase of formalin test; type: ADME, organism-based; set-up: dose 10 mg/kg, route oral; conditions: in vivo
Plasma [13] = test: Terminal plasma concentration in Sprague-Dawley rat at 30 mg/kg, po measured during second phase of formalin test; type: ADME, organism-based; set-up: dose 30 mg/kg, route oral; conditions: in vivo
[14] = Intrinsic clearance in human microsomes measured per mg of protein; type: ADME, Microsome
Plasma [15] = test: Terminal plasma concentration in Sprague-Dawley rat at 3 mg/kg, po measured during second phase of formalin test; type: ADME, organism-based; set-up: dose 3 mg/kg, route oral; conditions: in vivo
[16] = target: Metabotropic glutamate receptor 5 (Rattus norvegicus) (UniProt P31424); test: Displacement of [3H]MPEP from mGluR5 receptor in Sprague-Dawley rat cortical homogenate after 1 hr by liquid scintillation spectrometric analysis
Cytochrome P450 2C9 = Cytochrome P450 2C9 (Homo sapiens, UniProt P11712); test: Inhibition of CYP2C9 (unknown origin); type: ADME
Plasma [17] = test: Drug uptake in rat CSF assessed as ratio of CSF to plasma at 30 mg/kg, sc relative to control; type: ADME, organism-based; set-up: dose 30 mg/kg, route subcutaneous; conditions: in vivo
[18] = Intrinsic clearance in rat microsomes measured per mg of protein; type: ADME, Microsome
[19] = Volume of distribution at steady state in rat at 3 mg/kg, iv; type: ADME, organism-based; set-up: dose 3 mg/kg, route intravenous; conditions: in vivo, read-out: Vdss
[20] = Half life in rat at 3 mg/kg, iv; type: ADME, organism-based; set-up: dose 3 mg/kg, route intravenous; conditions: in vivo
[21] = target: Metabotropic glutamate receptor 5 (Rattus norvegicus, UniProt P31424); test: Negative allosteric modulation of rat mGluR5 receptor expressed in HEK293 cells assessed as intracellular calcium flux after 170 seconds by FLIPR assay; type: functional, cell-based; conditions: read-out: IC50
Metabotropic glutamate receptor 5, sequence (P31424 whole entry): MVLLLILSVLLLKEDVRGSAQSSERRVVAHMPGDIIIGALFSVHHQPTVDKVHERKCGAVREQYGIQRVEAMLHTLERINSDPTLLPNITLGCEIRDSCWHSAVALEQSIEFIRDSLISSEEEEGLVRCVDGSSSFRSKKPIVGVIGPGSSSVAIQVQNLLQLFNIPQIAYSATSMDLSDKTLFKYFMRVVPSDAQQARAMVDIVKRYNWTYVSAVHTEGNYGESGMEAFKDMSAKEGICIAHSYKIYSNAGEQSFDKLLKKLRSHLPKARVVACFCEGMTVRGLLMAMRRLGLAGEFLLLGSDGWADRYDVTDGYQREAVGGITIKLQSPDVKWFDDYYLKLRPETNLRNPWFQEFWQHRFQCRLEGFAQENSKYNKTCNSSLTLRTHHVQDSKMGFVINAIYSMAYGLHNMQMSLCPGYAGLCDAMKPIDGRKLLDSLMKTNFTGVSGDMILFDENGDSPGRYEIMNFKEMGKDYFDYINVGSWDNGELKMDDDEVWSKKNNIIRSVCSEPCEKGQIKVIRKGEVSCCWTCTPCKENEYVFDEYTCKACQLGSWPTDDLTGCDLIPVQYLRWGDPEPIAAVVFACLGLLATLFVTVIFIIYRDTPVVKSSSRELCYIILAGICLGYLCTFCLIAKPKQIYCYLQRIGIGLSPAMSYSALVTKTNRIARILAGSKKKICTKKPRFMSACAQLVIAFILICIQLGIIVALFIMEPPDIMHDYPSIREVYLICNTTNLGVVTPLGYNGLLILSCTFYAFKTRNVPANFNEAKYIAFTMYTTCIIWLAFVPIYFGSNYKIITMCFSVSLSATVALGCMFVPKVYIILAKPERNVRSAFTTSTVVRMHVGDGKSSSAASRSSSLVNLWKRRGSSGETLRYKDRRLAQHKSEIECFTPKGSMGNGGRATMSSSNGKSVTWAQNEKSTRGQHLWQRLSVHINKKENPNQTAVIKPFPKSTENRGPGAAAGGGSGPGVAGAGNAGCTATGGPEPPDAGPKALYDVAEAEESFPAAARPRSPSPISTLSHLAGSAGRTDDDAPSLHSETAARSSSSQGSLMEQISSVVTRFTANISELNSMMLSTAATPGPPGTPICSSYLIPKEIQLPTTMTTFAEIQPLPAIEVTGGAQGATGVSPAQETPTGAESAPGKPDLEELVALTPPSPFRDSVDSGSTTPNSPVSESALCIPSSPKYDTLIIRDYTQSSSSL

Metabotropic glutamate receptor 5 (Rattus norvegicus), sequence (P31424 21-1203 limits assumed): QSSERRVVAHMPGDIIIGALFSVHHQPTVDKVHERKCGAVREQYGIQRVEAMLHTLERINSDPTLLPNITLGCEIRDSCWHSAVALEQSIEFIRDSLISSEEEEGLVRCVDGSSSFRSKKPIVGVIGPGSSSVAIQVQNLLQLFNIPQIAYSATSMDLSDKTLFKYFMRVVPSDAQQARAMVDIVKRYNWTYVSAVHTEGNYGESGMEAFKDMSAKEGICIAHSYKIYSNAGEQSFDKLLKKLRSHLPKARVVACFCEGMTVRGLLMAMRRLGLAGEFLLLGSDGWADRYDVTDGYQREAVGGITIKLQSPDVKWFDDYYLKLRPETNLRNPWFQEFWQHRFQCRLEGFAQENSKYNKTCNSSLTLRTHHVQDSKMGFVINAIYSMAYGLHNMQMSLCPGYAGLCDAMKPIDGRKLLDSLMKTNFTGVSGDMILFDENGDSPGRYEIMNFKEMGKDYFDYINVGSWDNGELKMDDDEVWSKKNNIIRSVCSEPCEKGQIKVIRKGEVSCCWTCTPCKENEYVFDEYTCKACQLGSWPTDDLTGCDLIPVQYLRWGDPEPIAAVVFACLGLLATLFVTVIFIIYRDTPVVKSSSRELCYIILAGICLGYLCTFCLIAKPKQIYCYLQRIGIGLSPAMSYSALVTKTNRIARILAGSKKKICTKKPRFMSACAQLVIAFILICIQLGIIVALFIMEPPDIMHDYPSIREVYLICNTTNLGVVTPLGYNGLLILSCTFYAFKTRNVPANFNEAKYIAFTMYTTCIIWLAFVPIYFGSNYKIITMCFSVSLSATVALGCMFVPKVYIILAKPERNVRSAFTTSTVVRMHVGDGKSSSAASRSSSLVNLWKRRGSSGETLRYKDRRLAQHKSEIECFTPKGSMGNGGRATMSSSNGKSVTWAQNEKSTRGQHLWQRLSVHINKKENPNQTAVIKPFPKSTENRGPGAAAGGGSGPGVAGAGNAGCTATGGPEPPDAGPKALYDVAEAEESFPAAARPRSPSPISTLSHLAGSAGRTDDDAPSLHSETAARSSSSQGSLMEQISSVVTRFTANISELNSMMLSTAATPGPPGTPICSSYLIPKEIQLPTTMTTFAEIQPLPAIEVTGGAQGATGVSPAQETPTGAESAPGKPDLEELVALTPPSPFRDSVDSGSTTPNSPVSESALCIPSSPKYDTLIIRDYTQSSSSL
Cytochrome P450 2D6, sequence (P10635 whole entry): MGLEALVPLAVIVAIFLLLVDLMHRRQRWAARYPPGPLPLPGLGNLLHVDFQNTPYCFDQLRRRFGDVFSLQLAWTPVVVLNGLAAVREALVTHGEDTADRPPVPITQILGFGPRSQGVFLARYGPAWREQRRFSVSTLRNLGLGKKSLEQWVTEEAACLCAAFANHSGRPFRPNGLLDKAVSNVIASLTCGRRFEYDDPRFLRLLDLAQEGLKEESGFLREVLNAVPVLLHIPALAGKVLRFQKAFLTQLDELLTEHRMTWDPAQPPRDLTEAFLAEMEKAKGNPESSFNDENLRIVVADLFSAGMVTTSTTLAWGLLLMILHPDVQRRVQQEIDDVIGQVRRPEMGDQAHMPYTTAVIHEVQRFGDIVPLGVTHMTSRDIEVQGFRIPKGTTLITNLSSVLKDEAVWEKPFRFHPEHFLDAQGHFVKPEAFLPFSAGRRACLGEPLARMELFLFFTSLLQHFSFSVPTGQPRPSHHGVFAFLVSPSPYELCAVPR
Cytochrome P450 3A4, sequence (P08684 whole entry): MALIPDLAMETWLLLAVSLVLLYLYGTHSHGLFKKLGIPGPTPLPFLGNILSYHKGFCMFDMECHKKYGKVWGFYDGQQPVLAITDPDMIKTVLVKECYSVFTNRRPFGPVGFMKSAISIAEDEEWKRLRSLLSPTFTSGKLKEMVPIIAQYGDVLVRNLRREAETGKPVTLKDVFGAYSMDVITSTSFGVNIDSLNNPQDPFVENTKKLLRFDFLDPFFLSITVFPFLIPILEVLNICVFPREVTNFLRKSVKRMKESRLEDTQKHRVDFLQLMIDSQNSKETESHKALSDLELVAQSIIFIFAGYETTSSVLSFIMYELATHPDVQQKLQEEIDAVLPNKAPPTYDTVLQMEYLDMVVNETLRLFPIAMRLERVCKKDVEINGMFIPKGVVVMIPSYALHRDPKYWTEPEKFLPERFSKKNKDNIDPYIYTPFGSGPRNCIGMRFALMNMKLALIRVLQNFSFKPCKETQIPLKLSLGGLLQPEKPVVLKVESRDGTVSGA
Cytochrome P450 2C9, sequence (P11712 whole entry): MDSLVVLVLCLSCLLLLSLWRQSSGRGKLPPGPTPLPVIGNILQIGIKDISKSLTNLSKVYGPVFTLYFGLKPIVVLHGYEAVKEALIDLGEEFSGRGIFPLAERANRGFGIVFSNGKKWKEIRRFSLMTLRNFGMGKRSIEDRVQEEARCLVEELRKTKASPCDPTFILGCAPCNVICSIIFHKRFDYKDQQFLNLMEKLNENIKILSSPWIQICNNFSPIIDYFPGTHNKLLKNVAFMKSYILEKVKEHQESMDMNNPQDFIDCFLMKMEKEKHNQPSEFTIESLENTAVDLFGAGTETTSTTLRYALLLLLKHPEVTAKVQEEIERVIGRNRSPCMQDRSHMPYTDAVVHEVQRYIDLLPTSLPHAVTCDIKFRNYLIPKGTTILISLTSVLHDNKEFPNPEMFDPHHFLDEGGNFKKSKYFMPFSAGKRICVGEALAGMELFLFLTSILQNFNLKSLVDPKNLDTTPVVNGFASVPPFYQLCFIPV

With N#Cc1ccc(COc2cc3n(n2)CCCC3)nc1 the fraction unbound [1] was 0.32, the INH (Cytochrome P450 3A4) was over 10 µM and the solubility kinetic [2] was 100 µg/mL (≈ 393 µM). The inhibition [3] was over 99%, the Cmax [4] was 416 ng/mL and the Cmax [5] was 2900 ng/mL. For the same compound, the clearance [6] was 72 mL/min/kg, the Activity (Rattus norvegicus [7]) was “Active” and the INH (Cytochrome P450 1A2) was over 10 µM. For the same compound, the solubility kinetic [8] was 160 µg/mL (≈ 629 µM), the Activity (Rattus norvegicus [9]) was “Dose-dependent effect” and the “Cp(T)” value (Plasma [10]) was 2.4 ng/mL. The INH (Cytochrome P450 2D6) was over 10 µM, the Activity (Rattus norvegicus [11]) was “inactive” and the “Cp(T)” value (Plasma [12]) was 46 ng/mL. The “Cp(T)” value (Plasma [13]) was 501 ng/mL, the microsomal CLint [14] was 85 µL/min/mg and the “Cp(T)” value (Plasma [15]) was 5.3 ng/mL. The INH [16] was 299 nM, the INH (Cytochrome P450 2C9) was over 10 µM and the Drug uptake (Plasma [17]) was 14.4%. The microsomal CLint [18] was 42 µL/min/mg, the Vd [19] was 1.1 L/kg and the half-life [20] was 12 min. For the same compound, the IC50 [21] was 0.316 µM.
